Like-named read-outs stand apart in the source and are kept apart here.
Key:
[1] = molecular target: T1, recombinant RORγ Ligand Binding Domain (LBD) protein (Homo sapiens, UniProt P51449); assay: Radio-Ligand RORγ Binding Assay (Assay 1); details: radio-ligand competition, RORγ LBD, read-out: Avg ROR Bind Ki
T1 construct: 6×His; GST
T1 sequence (P51449 269-508 limits assumed): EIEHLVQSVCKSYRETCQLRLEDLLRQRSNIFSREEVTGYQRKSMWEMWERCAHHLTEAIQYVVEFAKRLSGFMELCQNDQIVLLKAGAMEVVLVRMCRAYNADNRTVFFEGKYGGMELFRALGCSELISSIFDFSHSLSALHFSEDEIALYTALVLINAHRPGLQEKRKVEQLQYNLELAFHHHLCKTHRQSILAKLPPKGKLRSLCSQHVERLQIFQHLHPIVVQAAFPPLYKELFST
How it was run: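 Cell-free SPA competition between compound and 25-hydroxy[26,27-^3H]-cholesterol for 6×His-GST-tagged RORγ LBD in 50 mM HEPES pH 7.4 with NaCl, MgCl2, glycerol, CHAPS, octylglucoside and DTT. Mix was shaken 20 min, held 10 min at rt, then read after poly-Lys YSi beads. IC50 came from a four-parameter fit, and Ki from radioligand KD.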

[2] = molecular target: T2, full-length RORγt in Jurkat cells (Homo sapiens, UniProt P51449); assay: RORγt 5×RORE Assay in Jurkat Cells (Assay 2); assay type: cell-based; details: 5×RORE luciferase reporter
T2 construct: transcriptional activity of the full-length RORγt in Jurkat cells; host or cells: Jurkat cells (ATCC TIB-152)
T2 sequence (P51449 1-497 isoform P51449-2): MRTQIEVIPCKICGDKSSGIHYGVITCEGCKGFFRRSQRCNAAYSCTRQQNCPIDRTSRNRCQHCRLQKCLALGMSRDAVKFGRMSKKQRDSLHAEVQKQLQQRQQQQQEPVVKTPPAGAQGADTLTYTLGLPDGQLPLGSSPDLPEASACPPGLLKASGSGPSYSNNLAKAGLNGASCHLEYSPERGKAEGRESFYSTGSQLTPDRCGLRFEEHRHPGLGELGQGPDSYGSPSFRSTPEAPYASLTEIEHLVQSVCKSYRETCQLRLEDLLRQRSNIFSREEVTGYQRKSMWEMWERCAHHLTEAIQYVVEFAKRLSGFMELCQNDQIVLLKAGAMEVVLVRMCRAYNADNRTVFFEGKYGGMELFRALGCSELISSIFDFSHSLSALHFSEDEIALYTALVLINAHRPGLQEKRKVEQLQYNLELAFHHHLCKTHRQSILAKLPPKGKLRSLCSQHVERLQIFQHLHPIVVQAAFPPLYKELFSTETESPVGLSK
How it was run: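 Inverse agonism measured as reduced NanoGlo signal from secreted NanoLuc in conditioned supernatant after 16-18 hrs compound exposure (37° C, 0.1% DMSO). Reporter: 5×RORE-driven secNluc, co-transfected with full-length RORγt into Jurkat cells cultured in delipidated-FBS, phenol-red-free RPMI.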

[3] = 25-hydroxy [26,27-3H]-cholesterol
[4] = head without unit (Tables 15, 17)
[5] = head without unit (Tables 15, 17), read-out: Avg ROR γt/5x IC50
[6] = Table 20, read-out: Avg ROR γt/5x IC5

Row | Structure (SMILES) | Ki [1, 3] | IC50 ([2]; read-out: Avg ROR γt/5x IC50) | Ki [1, 4] | IC50 [2, 5] | IC50 [2, 6]
1 | CCS(=O)(=O)c1ccc(C(C)NC(=O)c2ccc3c(c2)CCN(Cc2cnc(C)cn2)C3C(C)C)cc1 (racemic) [Hy2A-18, N-(1-(4-(ethylsulfonyl)phenyl)ethyl)-1-isopropyl-2-((5-methylpyrazin-2-yl)methyl)-1,2,3,4-tetrahydroisoquinoline-6-carboxamide] | < 100 nM | 100 to 1000 nM |  |  | 
2 | CCS(=O)(=O)c1ccc(CNC(=O)c2cnc3c(c2)CCN(C[C@H]2CC[C@H](C(F)(F)F)CC2)[C@H]3C(C)C)cc1 (single isomer, unassigned) [Hy2B-9.1] |  |  | < 100 nM | 100 to 1000 nM | 
3 | CC[C@@H]1CN(c2ccc(C(F)(F)F)cn2)Cc2cc(C(=O)NCc3ccc(S(=O)(=O)CC)cc3)ccc21 (single isomer, unassigned) [Hy7-8.1] | < 100 nM |  |  |  | < 100 nM
4 | CCS(=O)(=O)c1ccc(CNC(=O)c2cn(C)c3c(OCc4ccc(C(F)(F)F)cc4)nccc23)cc1 [Hy5-3, N-(4-(ethylsulfonyl)benzyl)-1-methyl-7-((4-(trifluoromethyl)benzyl)oxy)-1H-pyrrolo[2,3-c]pyridine-3-carboxamide] | < 100 nM | < 100 nM |  |  | 
5 | CCS(=O)(=O)c1ccc(CNC(=O)c2ccc3c(OC4CCC(C(F)(F)F)CC4)nccc3c2)cc1 (single isomer, unassigned) [Hy1A-3.2, N-(4-(ethylsulfonyl)benzyl)-1-(((1r,4r)-4-(trifluoromethyl)cyclohexyl)oxy)isoquinoline-6-carboxamide] | < 100 nM | > 1000 nM |  |  | 
6 | CCC1c2ccc(C(=O)NC(CO)c3ccc(S(=O)(=O)CC)cc3)cc2CCN1CC1CCC(C(F)(F)F)CC1 (single isomer, unassigned) [Hy2A-28.1] | < 100 nM | < 100 nM |  |  | 
7 | CC[C@@H]1CN(c2ncc(C(F)(F)F)cc2C#N)Cc2cc(C(=O)N[C@@H](CO)c3ccc(S(=O)(=O)CC)cc3)ccc21 (single isomer, unassigned) [Hy7-37.1] | < 100 nM |  |  |  | < 100 nM
8 | CCS(=O)(=O)c1ccc(CNC(=O)c2ccc3c(OC[C@H]4CC[C@H](C(F)(F)F)CC4)nccc3c2)cc1 [Hy1A-5, N-(4-(ethylsulfonyl)benzyl)-1-(((1r,4r)-4-(trifluoromethyl)cyclohexyl)methoxy)isoquinoline-6-carboxamide] | < 100 nM | 100 to 1000 nM |  |  | 
9 | CCS(=O)(=O)c1ccc([C@H](CO)NC(=O)c2ccc3c(C4CC4)n(Cc4ccc(C(F)(F)F)cc4)nc3c2)nc1 [Hy3A-7, (R)-3-cyclopropyl-N-(1-(5-(ethylsulfonyl)pyridin-2-yl)-2-hydroxyethyl)-2-(4-(trifluoromethyl)benzyl)-2H-indazole-6-carboxamide] | < 100 nM | < 100 nM |  |  | 
10 | CCS(=O)(=O)c1ccc(CNC(=O)c2ccc3c(c2)CCN(Cc2ncc(Br)cn2)[C@H]3C(C)C)cc1 (single isomer, unassigned) [Hy2A-26.1] | < 100 nM | 100 to 1000 nM |  |  | 
11 | CCS(=O)(=O)c1ccc(CNC(=O)c2ccc3c(c2)CN(Cc2ccc(Cl)cc2)C[C@@H]3C(C)C)cc1 (single isomer, unassigned) [Hy7-29.2] | < 100 nM |  |  |  | 100 to 1000 nM
12 | CCS(=O)(=O)c1ccc([C@H](CO)NC(=O)c2ccc3c(C4CC4)n(Cc4ccc(C(F)(F)F)cc4)nc3c2)cc1 [Hy3A-4, (R)-3-cyclopropyl-N-(1-(4-(ethylsulfonyl)phenyl)-2-hydroxyethyl)-2-(4-(trifluoromethyl)benzyl)-2H-indazole-6-carboxamide] | < 100 nM | < 100 nM |  |  | 
13 | CCS(=O)(=O)c1ccc([C@H](CO)NC(=O)c2ccc3c(OC[C@@H]4CC[C@@H](C(F)(F)F)OC4)nc(C)cc3c2)cc1 (single isomer, unassigned) [Hy1A-18.2] | < 100 nM | < 100 nM |  |  | 
14 | CCS(=O)(=O)c1ccc(CNC(=O)c2ccc3c(OC[C@H]4CC[C@H](C(F)(F)F)CC4)nc(C)cc3c2)cc1 [Hy1A-6, N-(4-(ethylsulfonyl)benzyl)-3-methyl-1-(((1r,4r)-4-(trifluoromethyl)cyclohexyl)methoxy)isoquinoline-6-carboxamide] | < 100 nM | < 100 nM |  |  | 
15 | CCS(=O)(=O)c1ccc(CNC(=O)c2sc3nc(C)nc(OC[C@H]4CC[C@H](C(F)(F)F)CC4)c3c2C)cc1 [Hy6-2, N-(4-(ethylsulfonyl)benzyl)-2,5-dimethyl-4-(((1r,4r)-4-(trifluoromethyl)cyclohexyl)methoxy)thieno[2,3-d]pyrimidine-6-carboxamide] | < 100 nM | 100 to 1000 nM |  |  | 
16 | CCS(=O)(=O)c1ccc([C@H](CO)NC(=O)c2cc3ccnc(OCc4ccc(C(F)(F)F)cc4)c3n2C)cc1 [Hy4-4, (R)-N-(1-(4-(ethylsulfonyl)phenyl)-2-hydroxyethyl)-1-methyl-7-((4-(trifluoromethyl)benzyl)oxy)-1H-pyrrolo[2,3-c]pyridine-2-carboxamide] |  |  | < 100 nM | 100 to 1000 nM | 
17 | CCS(=O)(=O)c1ccc(CNC(=O)c2ccc3c(c2)CN(Cc2ccc(Cl)cc2)C[C@H]3C(C)C)cc1 (single isomer, unassigned) [Hy7-29.1] | < 100 nM |  |  |  | > 1000 nM
18 | CCS(=O)(=O)c1ccc(CNC(=O)c2ccc3c(C4CC4)n(C[C@H]4CC[C@H](C(F)(F)F)CC4)nc3c2)nc1 [Hy3A-3, 3-cyclopropyl-N-((5-(ethylsulfonyl)pyridin-2-yl)methyl)-2-(((1r,4r)-4-(trifluoromethyl)cyclohexyl)methyl)-2H-indazole-6-carboxamide] | < 100 nM | < 100 nM |  |  | 
19 | CCS(=O)(=O)c1ccc([C@H](CO)NC(=O)c2cc3ccnc(OC[C@H]4CC[C@H](C(F)(F)F)CC4)c3n2C)cc1 [Hy4-2, N-((R)-1-(4-(ethylsulfonyl)phenyl)-2-hydroxyethyl)-1-methyl-7-(((1r,4R)-4-(trifluoromethyl)cyclohexyl)methoxy)-1H-pyrrolo[2,3-c]pyridine-2-carboxamide] |  |  | < 100 nM | < 100 nM | 
20 | CCC1CN(c2ncc(C(F)(F)F)cn2)Cc2cc(C(=O)N[C@@H](CO)c3ccc(S(=O)(=O)CC)cc3)ccc21 (single isomer, unassigned) [Hy7-17.1] | < 100 nM |  |  |  | < 100 nM
21 | CCS(=O)(=O)c1ccc(CNC(=O)c2ccc3c(c2)CCN(Cc2ccc(C#N)cc2)[C@H]3C(C)C)cc1 (single isomer, unassigned) [Hy2A-15.1] | < 100 nM | < 100 nM |  |  | 
22 | CCS(=O)(=O)c1ccc(CNC(=O)c2ccc3c(c2)CN(c2ncc(F)cn2)C[C@H]3C(C)C)cc1 (single isomer, unassigned) [Hy7-1.1] | < 100 nM |  |  |  | > 1000 nM
23 | CCS(=O)(=O)c1ccc(CNC(=O)c2ccc3c(c2)CN(Cc2ccc(C#N)cc2)C[C@H]3C(C)C)cc1 (single isomer, unassigned) [Hy7-28.1] | < 100 nM |  |  |  | 100 to 1000 nM
24 | CCS(=O)(=O)c1ccc(CNC(=O)c2ccc3c(c2)CCN(Cc2ccc(Cl)cc2)[C@@H]3C(C)C)cc1 (single isomer, unassigned) [Hy2A-20.2] | < 100 nM | 100 to 1000 nM |  |  | 
25 | CCS(=O)(=O)c1ccc(CNC(=O)c2ccc3c(c2)CN(Cc2ccc(F)cc2)C[C@@H]3C(C)C)cc1 (single isomer, unassigned) [Hy7-27.2] | < 100 nM |  |  |  | < 100 nM
26 | CC[C@H]1CN(c2ccc(C(F)(F)F)cn2)Cc2cc(C(=O)NCc3ccc(S(=O)(=O)CC)cc3)ccc21 (single isomer, unassigned) [Hy7-8.2] | < 100 nM |  |  |  | 100 to 1000 nM
27 | CCS(=O)(=O)c1ccc(CNC(=O)c2ccc3c(c2)CN(c2ncc(-c4ccn(C)c(=O)c4)cn2)C[C@H]3C(C)C)cc1 (single isomer, unassigned) [Hy7-25.1] | < 100 nM |  |  |  | 100 to 1000 nM
28 | CCS(=O)(=O)c1ccc(CNC(=O)c2ccc3c(c2)CCN(Cc2ccc(C#N)cc2)C3C(C)C)cc1 (racemic) [Hy2A-14, 2-(4-cyanobenzyl)-N-(4-(ethylsulfonyl)benzyl)-1-isopropyl-1,2,3,4-tetrahydroisoquinoline-6-carboxamide] | < 100 nM | < 100 nM |  |  | 
29 | CCS(=O)(=O)c1ccc(CNC(=O)c2ccc3c(c2)CN(c2ncc(C(F)(F)F)cn2)C[C@H]3C(F)(F)F)cc1 (single isomer, unassigned) [Hy7-36.1] | < 100 nM |  |  |  | < 100 nM

— patent US11008340B2, “Modulators of ROR-gamma” (Vitae Pharmaceuticals, LLC, priority 2015, dated 2021)
